Data: patent publication US20230233533A1, “COMPOSITIONS, METHODS OF TREATING AND PREVENTING FUNGAL INFECTIONS, AND METHODS OF INHIBITING PRP8 INTEIN EXPRESSION” (Health Research, Inc., priority 2020, published 2023)
Converted amounts (≈) assume the structure as drawn. Where two headings read alike, the source gives them in different places.

Assays:
[1] = system: trypsin; test: Trypsin protease inhibition (Abz FRET substrate); type: biochemical; conditions: compound at 400 μM
Procedure: Trypsin and papain protease inhibition—An Abz FRET substrate (Abz-RRRRSAG-nTyr) developed previously (Li et al., “Existing Drugs as Broad-Spectrum and Potent Inhibitors for Zika Virus by Targeting NS2B-NS3 Interaction,” Cell Research 27(8):1046-1064 (2017), which is hereby incorporated by reference in its entirety) was used as the substrate for inhibition of trypsin and papain proteases. In black and clear-bottom 96-well plates, 1 μg trypsin (Sigma-Aldrich) was incubated with DMF or compounds at 400 μM at 25° C. for 30 min in a 70 μl reaction buffer containing 20 mM Tris, pH 8.0, 100 mM NaCl, 5% Glycerol, and 0.05% CHAPS. For papain, 1 μg Papain (Sigma-Aldrich) was incubated with compounds at 400 μM at 25° C. for 30 min in a 70 μl reaction buffer composed of 1.1 mM EDTA, 0.067 mM β-mercaptoethanol, 5.5 mM cysteine. […]

[2] = system: C. neoformans H99 strain; test: Fungal susceptibility test, broth microdilution MIC; type: cell-based, Cryptococcus neoformans; conditions: for MIC: Cryptococcus neoformans, H99STRAIN
How it was run: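 Compound MICs were determined by broth microdilution using a compound concentration series.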

[3] = system: Candida albicans; test: as above; type: cell-based; conditions: microdilution assay
Procedure: Fungal susceptibility test—The fungal susceptibility test was carried out with a compound concentration series as described. Li et al., “Cisplatin Protects Mice From Challenge of Cryptococcus neoformans by Targeting the Prp8 Intein,” Emerging Microbes & Infections 8(1):895-908 (2019), which is hereby incorporated by reference in its entirety. The broth microdilution method was used to determine the compound MIC values against C. neoformans. In brief, serial 2-fold dilutions of the 6G-318SS (20 to 0.03 μg/ml) were made in 100 μl RPMI-1640 medium with MOPS in 96-well U-bottom plates. The C. neoformans H99 strain (100 μl of 0.5×10^5/ml) in log phase was added to each well. […] The MIC break-point was defined as no visible fungal growth by naked eye or by determining the 90% growth inhibition using absorbance at 630 nm, compared with no inhibitor control in a 96-well plate.
C. albicans, a fungus without the Prp8 intein, was also used as a control.

[4] = system: C. neoformans strain H99; test: Minimum fungicidal concentration (MFC) determination; type: cell-based; conditions: Cryptococcus neoformans
Procedure: […] cells (100 ul of 0.5×10^5/ml) in log phase were added to each well. […] Then, the cultured cells in selected wells were first suspended by gentle pipetting. 50 μl of the cell culture suspension from each well was plated onto the Sabouraud dextrose agar (SDA) plates and further incubated for 48 h. MFC is defined as the minimum concentration where there is no growth after plating to the SDA plates. […] To determine minimum fungicidal concentration (MFC), the cultured cells in selected wells were first suspended by gentle pipetting. Then 50 ul of the cell culture suspension from each well was plated onto the Sabouraud dextrose agar (SDA) plates and further incubated for 48 h. MFC is defined as the minimum fungicidal concentration where there is no growth after plating on the SDA plates.

[5] = molecular target: C1A/H62A/D95A/H169A (AAAA) Prp8 intein mutant; test: Surface plasmon resonance (SPR), AAAA mutant; type: binding, Cryptococcus gattii
Procedure: The Prp8 intein and mutants were immobilized onto a ProteOn™ GLH sensor chip (2,500-7,000 RU) (Bio-Rad). A 3-fold dilution series of compounds was injected as the analytes. A blank surface blocked by ethanolamine was used as the control surface. The experiment was carried out at a flow rate of 100 μl/min using a PBSTD buffer containing 1×PBS, 0.005% surfactant P20, and 5% DMSO. Association (ka) and dissociation (kd) rates, as well as the dissociation constant (KD), were obtained by global fitting of the SPR data from multiple concentrations to a simple 1:1 Langmuir binding model, using the ProteOn Manager software suite (Bio-Rad).

[6] = system: Prp8 intein; test: Western blot of Prp8 intein splicing in C. neoformans H99; type: cell-based; conditions: 0.32 μg/ml, 3 h post-treatment
Procedure: Western blot (WB)—Fresh colonies of Cryptococcus neoformans were grown in yeast extract peptone dextrose (YPD) broth in an environmental shaker (250 rpm) overnight at 30° C. The fungal cells (5 ml) were diluted in 125 ml YPD broth and grown for 1.5 h to a final cell density of 0.2 at OD530. The cells were distributed to test tubes (3 ml/tube). Then 3 ml of YPD medium containing DMF or 2-fold diluted compounds was added to the cells. The mixtures were incubated at 30° C. in a shaker at 250 RPM for up to 18 h. Samples were spun down and pellets were frozen for WB analysis.
Cryptococcal cells treated with DMF or compounds were washed twice with PBS buffer. Cells were spun down and supernatant was removed. For a 6-ml cell pellet, 30 μl of complete protease inhibitor cocktail in PBS was added to the cells, followed by addition of 400 μl lysis buffer (50 mM Tris, pH 8.0, 500 mM NaCl, 10% glycerol) and 500 μl glass beads. The fungal cells were lysed by rigorous beating for 2 min 3 times. The cell lysate was spun down. Supernatant was mixed with SDS-PAGE loading buffer (1:1). The mixtures were boiled at 95° C. for 10 min, followed by centrifugation at 15,000 rpm for 10 min. Samples were analyzed using 12% SDS-PAGE. The separated samples were blotted to a PVDF membrane and subjected to WB analysis using an antibody against the Prp8 intein. […]

[7] = system: C. neoformans H99 strain transformed with empty vector, WT Prp8 or AAAA mutant; test: Resistance study, MIC in H99 overexpressing Prp8 intein; type: cell-based, Cryptococcus neoformans
Procedure: For resistance studies, C. neoformans H99 strain transformed with an empty pXL1-PTEF1 vector, the Prp8-pXL1-PTEF1 (WT Prp8) construct, or the AAAA mutant were used, as described. Li et al., “Cisplatin Protects Mice From Challenge of Cryptococcus Neoformans by Targeting the Prp8 Intein,” Emerging Microbes & Infections 8(1):895-908 (2019), which is hereby incorporated by reference in its entirety. MICs for selected compounds were determined for these transformed cells as described above.

[8] = In vivo toxicity studies in adult BALB/c mice
Procedure: Mouse 1: Oral, VC—125 ul of formulation without drug is given per mouse by oral gavage
Mouse 3: IP, VC—60 ul of the formulation without the drug is injected intraperitoneally
A total of 5 doses were given (one/day). Weight, posture, movement, activity, paralysis, seizure, and fur nature were monitored in the morning and evening.

In the case of `O=C(Nc1ccc(F)cc1)c1nnsc1S(=O)(=O)c1ccc(Cl)cc1` [6G-318S, 5-[(4-chlorophenyl)sulfonyl]-N-(4-fluorophenyl)-1,2,3-thiadiazole-4-carboxamide], the “inhibition of trypsin protease activity” value [1] is reported as “neither 6G-318S, 6G-319S, nor cisplatin significantly inhibited”, the MIC ([2]; C. neoformans H99, microbroth dilution, read-out: MIC H99) is reported as 1.56 µM and the MIC ([2]; C. neoformans and other related species, read-out: minimum inhibitory concentration (MIC) 90) is reported as 0.6 to 1 µg/mL. For the same compound, the MIC ([2]; H99 strain, 48 h, 30° C., read-out: MIC C. neoformans) was 0.62 µg/mL, the “MIC C. neoformans” value ([2]; H99 strain, 48 h, 30° C.) was 0.6 µg/mL (≈ 1.51 µM) and the MIC [3] was 5 µg/mL (≈ 12.6 µM). For the same compound, the MFC [4] was 1.25 µg/mL (≈ 3.14 µM), the “KD AAAA” value [5] was “completely lost binding affinity” and the “inhibition of Prp8 splicing in vivo in C. neoformans” value [6] was “completely inhibited Prp8 splicing”. The “MIC with empty vector or AAAA mutant Prp8 intein-transformed H99 cells” value [7] was “identical MIC values”, the “increase of MIC in H99 transformed with WT Prp8 intein” value ([7]; compared to H99 with empty vector or AAAA mutant) was 4 fold and the “observed condition of mouse” value ([8]; 50 mg/kg intraperitoneally) was “died on day 2”. The “dose with no observed toxicity / safe dose, oral” value ([8]; mouse, in vivo, po, 5 days) was 200 mg/kg.
